Usually IC50 stands for the midpoint of a concentration-inhibition curve. The low end stands for inhibition by little substance, the high end for a need for much substance. For orientation: EC30 means the concentration at which the effect reaches the 30% level.

The target of assay [1] is T1, Full-length human PRMT8 (Homo sapiens, UniProt Q9NR22).
T1 construct: Full-length human PRMT8 (NM_019854.4) isoform 1 transcript clone; made in house
In words: PRMT8 biochemical assay (3H-SAM Flashplate, peptide substrate). The gist of the method: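 E. coli-expressed PRMT8, GST-cleaved, was preincubated with compound for 30 min at room temperature in 20 mM Bicine pH 7.6, 1 mM TCEP, 0.005% BSG, 0.002% Tween 20. ³H-SAM and biotinylated histone H4 31-45 peptide then started methylation.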

For assay [2], the system named is mono-methyl arginine in RKO cells. In words: RKO methylation assay, In Cell Western for mono-methyl arginine and DNA content. Format: cell-based. To be noted: Homo sapiens.
The mark [3] stands for this setting: In Cell Western, RKO cells, 72 hours, percent activation of mono-methyl arginine signal, read-out: EC30.

Each structure is given as a SMILES string. Where two headings read alike, the source gives them in different places. Some results are limits rather than exact numbers.

T1 sequence (Q9NR22 whole entry, canonical isoform): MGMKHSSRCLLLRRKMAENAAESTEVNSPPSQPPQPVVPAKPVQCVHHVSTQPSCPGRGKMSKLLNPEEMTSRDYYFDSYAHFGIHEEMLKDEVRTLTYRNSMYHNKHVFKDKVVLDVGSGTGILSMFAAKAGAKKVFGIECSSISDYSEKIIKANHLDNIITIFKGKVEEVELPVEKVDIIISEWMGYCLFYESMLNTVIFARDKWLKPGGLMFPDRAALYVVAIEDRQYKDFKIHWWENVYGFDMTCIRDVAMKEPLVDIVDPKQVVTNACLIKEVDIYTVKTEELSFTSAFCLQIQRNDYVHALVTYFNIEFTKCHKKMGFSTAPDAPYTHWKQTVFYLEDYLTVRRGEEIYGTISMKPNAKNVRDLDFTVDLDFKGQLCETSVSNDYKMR

Regarding `NCCN(Cc1c[nH]nc1-c1ccc(F)cc1)C1CC1` [Compound 78], the IC50 in assay [1] is 1.01 to 3 µM. Besides, the EC30 in assay [2] (setting [3]) lay in the range of 3.01 to 12 µM.
The corresponding values for `CN(CCN)Cc1cn(CC2COC2)nc1-c1ccc(F)cc1` [Compound 79] are greater than 10 µM and greater than 12 µM.
For `CN(CCN)Cc1cnn(CC2COC2)c1-c1ccc(F)cc1` [Compound 80], in that order: greater than 10 µM and greater than 12 µM.
For `CN(CCN)Cc1cnn(C2COC2)c1-c1ccc(F)cc1` [Compound 81], in that order: 3.01 to 10 µM and greater than 12 µM.
`CN(CCN)Cc1c[nH]nc1-c1ccc(N2CCNCC2)cc1` [Compound 82]: the IC50 in assay [1] lay within 1.01 to 3 µM. In assay [2] (setting [3]), the EC30 is greater than 12 µM.
The corresponding values for `CN(CCN)Cc1nn(C)cc1-c1ccc(C#N)cc1` [Compound 83] are 0.101 to 1 µM and 3.01 to 12 µM.
The corresponding values for `CN(CCN)Cc1c(-c2ccc(C#N)cc2)cnn1C` [Compound 84] are greater than 10 µM and greater than 12 µM.
In assay [1], `CN(CCN)Cc1c[nH]nc1-c1ccc(C(F)(F)F)cc1C(F)(F)F` [Compound 85] gave an IC50 of 3.01 to 10 µM. Besides, in assay [2] (RKO, 72 h), the EC30 was greater than 12 µM.
`CN(CCN)Cc1c[nH]nc1-c1ccc(Cl)cc1Cl` [Compound 86]: in assay [1], the IC50 was in the range of 0.101 to 1 µM. In assay [2] (setting [3]), the EC30 fell in the range of 3.01 to 12 µM.
Turning to `COc1ccc(-c2n[nH]cc2CN(C)CCN)c(OC)c1` [Compound 87], the IC50 in assay [1] lay within 3.01 to 10 µM. The EC30 in assay [2] (setting [3]) was greater than 12 µM.
The corresponding values for `Cc1ccc(-c2n[nH]cc2CN(C)CCN)c(C)c1` [Compound 88] are 1.01 to 3 µM and greater than 12 µM.
As to `CN(CCN)Cc1c[nH]nc1-c1ccc(F)cc1Cl` [Compound 89], in assay [1], the IC50 fell in the range of 1.01 to 3 µM. The EC30 in assay [2] (setting [3]) is 3.01 to 12 µM.
For `Cc1ccc(-c2n[nH]cc2CN(C)CCN)c(Cl)c1` [Compound 90], in that order: 1.01 to 3 µM and 3.01 to 12 µM.
Consider `Cc1ccc(Cl)c(-c2n[nH]cc2CN(C)CCN)c1` [Compound 91], for which, in assay [1], the IC50 lay within 3.01 to 10 µM. Also, the EC30 in assay [2] (setting [3]) is greater than 12 µM.
For `CN(CCN)Cc1c[nH]nc1-c1ccc(C(F)(F)F)cc1` [Compound 92], in that order: 0.101 to 1 µM and less than 3 µM.
The corresponding values for `CN(CCN)Cc1c[nH]nc1-c1ccc(OC(F)(F)F)cc1` [Compound 93] are less than 0.1 µM and less than 3 µM.
The corresponding values for `CN(CCN)Cc1c[nH]nc1-c1ccc(OC(F)F)cc1` [Compound 94] are 0.101 to 1 µM and less than 3 µM.

The values are drawn from patent US9346761B2, “Arginine methyltransferase inhibitors and uses thereof” (Epizyme, Inc., priority 2013, dated 2016).
